Read-outs that look alike come from different tables or passages of the source.
Columns and labels:
h-DHODH = biological target: T1, h-DHODH (Homo sapiens, UniProt Q02127); experiment: DHODH enzymatic assay (DCIP reduction at 600 nm); assay type: biochemical; conditions: recombinant human enzyme, 25° C.
T1 construct: made in house
Protocol: DHODH Enzymatic Assay: DHODH activity was determined at 25° C. following the reduction of 2,6-dichloroindophenol sodium salt (DCIP) at 600 nm (ε=18 800 M^−1 cm^−1) on a spectrophotometer. The reaction medium used contained 50 mM Tris-HCl, pH 8.0, 0.1% Triton X-100, 0.1 mM LDHO, 0.025 mM CoQ1, and 0.06 mM DCIP. The reaction was started by addition of the enzyme. The inhibitory potency of the compounds was evaluated by measuring the initial velocity of the reaction either in the absence or in the presence of the compounds at the indicated concentrations. The DHODH enzyme used was the recombinant human enzyme prepared as previously described (Hélène Munier-Lehmann, et al., J. Med. Chem. 2015, 58:860-877).
(§1) Biological Activity. Cell proliferation assays were carried out using the MTS assay described herein using an AML cell line (i.e., OCI-AM L3) as described above. The assays were carried out in a blinded fashion. Assays were also carried out to assess the effect of representative disclosed compounds on DHODH activity.

OCI-AML3 cell line = experiment: MTS assay for cell growth/viability; assay type: cell-based; conditions: Homo sapiens
Protocol: MTS assay for cell growth/viability: Mitochondrial activity was measured to determine cell proliferation using an MTS assay (tetrazolium dye 3-[4,5-dimethylthiazol-2-yl]-2,5-diphenyl-tetrazolium bromide). Metabolically active cells convert MTS tetrazolium salt into a purple formazan product that is soluble in tissue culture medium. The amount of formazan measured at 490 nm absorbance is proportional to the number of proliferating cells. MTS assays in AML cell lines were carried out with 20K cells plated per well in 96-well plates with Cpd3 or brequinar in a dose series ranging from 0.0001 to 10 μM. Triplicate wells were set up for each condition. At 96 hours, the MTS reagent was added and after approximately 4 hours the plates were read in a spectrophotometer.
as §1

[1] = OCI-AML-3, 96 hours, read-out: OCI-AML3 cell line IC50
[2] = OCI-AML-3, read-out: growth arrest in the OCI-AML3 cell line, IC50

T1 sequence (Q02127 whole entry): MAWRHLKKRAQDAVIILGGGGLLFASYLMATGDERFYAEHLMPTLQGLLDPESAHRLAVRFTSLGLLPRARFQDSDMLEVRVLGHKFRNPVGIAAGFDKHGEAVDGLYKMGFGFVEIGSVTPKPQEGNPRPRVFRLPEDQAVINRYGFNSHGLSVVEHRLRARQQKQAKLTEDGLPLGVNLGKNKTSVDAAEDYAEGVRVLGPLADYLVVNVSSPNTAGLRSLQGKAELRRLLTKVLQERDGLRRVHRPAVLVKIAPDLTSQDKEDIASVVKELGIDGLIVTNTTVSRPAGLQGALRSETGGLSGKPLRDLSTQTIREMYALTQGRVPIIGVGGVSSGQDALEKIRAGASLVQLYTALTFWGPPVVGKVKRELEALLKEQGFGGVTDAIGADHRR

Row | SMILES | IC50 (h-DHODH) | IC50 (OCI-AML3 cell line; [1]) | IC50 (OCI-AML3 cell line; [2])
1 | CCOc1ccc(-c2csc(-c3cc(C(=O)O)c4cc(F)ccc4n3)c2)cc1 [Cpd1, 2-(4-(4-ethoxyphenyl)thiophen-2-yl)-6-fluoroquinoline-4-carboxylic acid] | 58 nM | 413 nM | 410 to 790 nM
2 | CCOc1cccc(-c2csc(-c3cc(C(=O)O)c4cc(F)ccc4n3)c2)c1 [Cpd3, 2-(4-(3-ethoxyphenyl)thiophen-2-yl)-6-fluoroquinoline-4-carboxylic acid] | 200 nM | 10900 nM | 
3 | CCOc1cccc(-c2ccc(-c3cc(C(=O)O)c4cc(F)ccc4n3)s2)c1 [Cpd4, 2-(5-(3-ethoxyphenyl)thiophen-2-yl)-6-fluoroquinoline-4-carboxylic acid] | 223 nM | 3350 nM | 
4 | CCOc1ccc(-c2cnc(-c3cc(C(=O)O)c4cc(F)ccc4n3)s2)cc1 [Cpd6, 2-(5-(4-ethoxyphenyl)thiazol-2-yl)-6-fluoroquinoline-4-carboxylic acid] | 13900 nM | > 10000 nM | 
5 | CCOc1ccc(-c2ncc(-c3cc(C(=O)O)c4cc(F)ccc4n3)s2)cc1 [Cpd8, 2-(2-(4-ethoxyphenyl)thiazol-5-yl)-6-fluoroquinoline-4-carboxylic acid] | 472 nM | > 10000 nM | 

The next lines start with the values.

Row | IC50 (h-DHODH) | IC50 (OCI-AML3 cell line; [1]) | IC50 (OCI-AML3 cell line; [2]) | SMILES
6 | 212 nM | 790 nM | 410 to 790 nM | CCOc1ccc(-c2ccc(-c3cc(C(=O)O)c4cc(F)ccc4n3)s2)cc1 [Cpd2, 2-(5-(4-ethoxyphenyl)thiophen-2-yl)-6-fluoroquinoline-4-carboxylic acid]
7 | 524 nM | 7410 nM |  | CCOc1ccc(-c2csc(-c3cc(C(=O)O)c4cc(F)ccc4n3)n2)cc1 [Cpd5, 2-(4-(4-ethoxyphenyl)thiazol-2-yl)-6-fluoroquinoline-4-carboxylic acid]
8 | 85 nM | 4920 nM |  | CCOc1ccc(-c2nc(-c3cc(C(=O)O)c4cc(F)ccc4n3)cs2)cc1 [Cpd7]
